Measured values as given in US7087253B2 (AKH Arzneimittelkontor GmbH, priority 2002, dated 2006).

System: patients with acute bronchitis
Test: double blind, randomized, placebo-controlled clinical study, 14-day treatment of acute bronchitis
Format: in vivo
Description: A parallel group of patients was treated for 14 days correspondingly with placebo or cefuroxime.

CO/N=C(\C(=O)N[C@@H]1C(=O)N2C(C(=O)O)=C(COC(N)=O)CS[C@H]12)c1ccco1 [cefuroxime]
patients still with a pathological ausculatory finding (after 7±2 treatment days): 26.3%
patients who experienced a worsening of the symptoms (terminations because of a worsening of the acute bronchitis) (after 7±2 treatment days): 7.6%
patients with worsening of the acute bronchitis (after 14±2 treatment days): 16.4%
patients with worsening, times as many as in the Eucalyptus oil/orange oil group (after 14±2 treatment days): 10 times
patients still with a pathological ausculatory finding (pathological respiratory sounds) (after 14±2 days): 7.6%
general state of health, Eucalyptus oil/orange oil group versus cefuroxime group (human, in vivo): no differences worth mentioning
